From patent US4182877A, “Substituted anthranilates” (Commonwealth Scientific and Industrial Research Organization, priority 1976, dated 1980)
Values after ≈ are worked out from the molar mass of the structure shown.

What follows are molecules tested on Tilletia foetida (assay: In vitro inhibition of germination of Tilletia foetida (wheat smut) spores on agar medium). Settings: Tilletia laevis, 10° C. in the dark, 8-9 days, tested at 5, 10, 25, 50, 100 and 150 ppm, spores germinated as percentage of control, read-out: Minimum inhibitory concentration (ppm) which reduces germination to <20% control.
Type: cell-based
Description: In vitro assays using compounds of the formula I were carried out as follows. An agar medium prepared from Difco "Bacto-Agar" and distilled water was sterilised in an autoclave. Aliquots of the test compounds in acetone solution were added to two duplicate samples of the medium to give final concentrations of 5, 10, 25, 50, 100 and 150 ppm, and the resulting solutions poured into sterilised petri dishes and inoculated with Tilletia foetida (wheat smut) from the kernels of infected wheat. […] The inhibition of germination due to the test compounds was then determined by estimating (microscope) the spores germinated as a percentage of control.

`CCOC(=O)c1c(Cl)cc(C)cc1N(C)C` [Compound 1, Ethyl 6-chloro-4,N,N-trimethylanthranilate] and `CCOC(=O)c1c(Cl)cc(C)cc1N(CC)CC` [R^1 = R^2 = R^3 = Et] are the same in MIC: 25 µg/mL (≈ 103 µM) for the first, 25 µg/mL (≈ 92.7 µM) for the second.

Going from `CCOC(=O)c1c(Cl)c(Cl)c(C)c(Cl)c1N(C)C` [Compound 3, Ethyl 3,5,6-trichloro-4,N,N-trimethylanthranilate] to `CCOC(=O)c1c(N(C)C)cc(C)c(SC#N)c1Cl` [Compound 4, Ethyl 6-chloro-4,N,N-trimethyl-5-thiocyanoanthranilate], the MIC falls from 5 µg/mL (≈ 16.1 µM) to < 5 µg/mL.

Compared with `CCOC(=O)c1c(N(CC)CC)cc(C)c(SC#N)c1Cl` [Compound 5], `CCOC(=O)c1c(N(CC)CC)cc(C)c([N+](=O)[O-])c1Cl` [Compound 7] is 2.5-fold higher in MIC: 10 µg/mL (≈ 30.6 µM) for the first, 25 µg/mL (≈ 79.4 µM) for the second.

For `CCOC(=O)c1c(N(C)C)cc(C)c([N+](=O)[O-])c1Cl` [Compound 6, Ethyl-6-chloro-4,N,N-trimethyl-5-nitroanthranilate], the MIC was < 5 µg/mL.
